Measured values published in patent EP0172962A1, “Prostaglandins” (ONO PHARMACEUTICAL CO., LTD., priority 1984, dated 1986).
Values after ≈ are worked out from the molar mass of the structure shown.

Experiments:
[1] = tested on: cells originated from human mouth tumour (KB-cells); assay: Test on inhibition of proliferation using cells originated from human mouth tumour (KB-cells); format: cell-based; details: 96 h, stationary culture at 37°C for 4 days, Trypan Blue staining, surviving cell number relative to control
Method: The experimental methods and the results are described below. Test on Inhibition of Proliferation Using Cells Originated
. The cells originated from human mouth tumour (KB-cells) were added to Eagle's MEM culture solution containing 10% bovine fetal serum, the number of cells in the culture solution was adjusted to 1 ×10^5 cells/ml, a solution in ethanol of compounds of the present invention was added to give a concentration of 5 µg/ml or below and the mixture was subjected to stationary culture at 37°C for 4 days. As a control, a culture solution containing 0.1% of ethanol was similarly cultured. After the culture, the cells were stained by the Trypan Blue staining method, and the surviving cell number was measured to determine the IC50 value from the degree of inhibition relative to the control.

[2] = Acute toxicity; details: in vivo, iv; intravenously
[3] = tested on: ICR male mice; assay: Test on increase of white blood cell (hematological test); format: in vivo; details: 3 mg/kg i.p. once a day for 14 days, blood collected on the day following the final administration
Method: The experimental methods and results are described below. A solution of a compound of the present invention in ethanol was diluted with l% Tween 80 (registered Trade Mark) and the solution was intraperitoneally administered to ICR male mice of 6-7 weeks old once a day for 14 days. On the day following the final administration, the blood was collected by cardiac puncture with Anglot® (containing heparin and EDTA) as an anticoagulant. The blood was diluted with Seruento (registered Trade Mark), and the numbers of white blood cells and red blood cells were counted by a Micro Cell Counter (model CC-120).

Structure (SMILES): CCCCC[C@H](O)/C=C/[C@H]1C(=O)C=C[C@@H]1C/C=C\CCCC(=O)NCCNC(=O)CCC/C=C\C[C@H]1C=CC(=O)[C@@H]1/C=C/[C@@H](O)CCCCC [Example 1]
- IC50 [1]: 0.87 mg/L (≈ 1.26 µM)

Structure (SMILES): CCCCC[C@H](O)/C=C/[C@H]1C(=O)C=C[C@@H]1C/C=C\CCCC(=O)NCCCCNC(=O)CCC/C=C\C[C@H]1C=CC(=O)[C@@H]1/C=C/[C@@H](O)CCCCC [Example 1(f)]
- IC50 [1]: 1.17 mg/L (≈ 1.62 µM)

Structure (SMILES): CCCCC[C@H](O)/C=C/[C@H]1C(=O)C=C[C@@H]1C/C=C\CCCC(=O)NCCCNC(=O)CCC/C=C\C[C@H]1C=CC(=O)[C@@H]1/C=C/[C@@H](O)CCCCC [Example 1(e), N,N'-bis[(5Z,13E)-(15S)-11-oxo-15-hydroxy-prosta-5,9,13-trienoyl]trimethylenediamine]
- LD50 [2]: > 100 mg/kg
- RBC (x10^4/mm^3) ([3]; red blood cells): 793 ± 22.5 (p <0.001) x10^4/mm^3
- WBC (x10^2/mm^3) ([3]; white blood cells): 158 ± 17.0 (p <0.05) x10^2/mm^3

Structure (SMILES): CCCCCC=CC=C1C(=O)C=CC1CC=CCCCC(=O)NCCNC(=O)CCCC=CCC1C=CC(=O)C1=CC=CCCCCC (stereo not drawn) [Example 4]
- IC50 [1]: 0.47 mg/L (≈ 0.715 µM)

Structure (SMILES): CCCCC[C@H](O)/C=C/[C@H]1C(=O)C=C[C@@H]1C/C=C\CCCC(=O)OCCOC(=O)CCC/C=C\C[C@H]1C=CC(=O)[C@@H]1/C=C/[C@@H](O)CCCCC [Example 1(h)]
- IC50 [1]: < 1 mg/L

Structure (SMILES): CCCCC[C@H](O)/C=C/[C@H]1C(=O)C[C@H](O)[C@@H]1C/C=C\CCCC(=O)NCCCNC(=O)CCC/C=C\C[C@H]1[C@@H](O)CC(=O)[C@@H]1/C=C/[C@@H](O)CCCCC [Example 3(a)]
- IC50 [1]: 1.9 mg/L (≈ 2.56 µM)

Structure (SMILES): CCCCC[C@H](O)/C=C/[C@H]1C(=O)C=C[C@@H]1C/C=C\CCCC(=O)NCCOC(=O)CCC/C=C\C[C@H]1C=CC(=O)[C@@H]1/C=C/[C@@H](O)CCCCC [Example 1(g)]
- IC50 [1]: 1.8 mg/L (≈ 2.59 µM)
